The test system of assay [1] is amyloid peptide 1-40 release. Put plainly: Test 4: Inhibition of Cellular Release of Amyloid Peptide 1-40. Format: cell-based. The settings on record: Cricetulus griseus; Chinese hamster ovary cells transfected with the human gene for amyloid precursor protein, 24 hours; read-out: Amyloid-β1-40 release IC50. The procedure:
Chinese hamster ovary cells are transfected with the human gene for amyloid precursor protein. The cells are plated at a density of 8000 cells/well into 96-well microtiter plates and cultivated for 24 hours in DMEM cell culture medium containing 10% FCS. The test compound is added to the cells at various concentrations, and the cells are cultivated for 24 hours in the presence of the test compound. […] The potency of the compound is calculated from the percentage of inhibition of amyloid peptide release as a function of the test compound concentration.

The target in the next assay is human BACE-1 (Homo sapiens (Human), UniProt P56817). Put plainly: Test 1: Inhibition of Human BACE-1. In kind it is biochemical. The settings on record: recombinant BACE-1, pH 4.5, fluorescence-quenched substrate. As for the experimental part: Test 1: Inhibition of Human BACE-1
(§1) Recombinant BACE-1 (extracellular domain, expressed in baculovirus and purified using standard methods) at 0.1 to 1 nM concentrations is incubated with the test compound at various concentrations for 1 hour at room temperature in 100 mM acetate buffer, pH 4.5, containing 0.1% CHAPS. Activity was measured using a final concentration of 3 μM of the fluorescence-quenched substrate Q-C(HSO3)-Ile-Asp-Leu-Ala-Val-Leu-Asp-HN—CH2—CH2-Mca, where Q=2-nitro-5-amino benzoic acid and Mca=7-methoxy-4-coumarinyl acetic acid. […] Fluorescence increase was followed for 15 min, in 1 minute's intervals. The fluorescence/time slopes were calculated from duplicate wells and from wells without inhibitor and the IC50 values were calculated using a logistic 4-parameter model.

The target in another assay is human BACE-2 (Homo sapiens (Human), UniProt Q9Y5Z0). Put plainly: Test 2: Inhibition of Human BACE-2. Format: biochemical. The settings on record: recombinant BACE-2, pH 4.5, fluorescence-quenched substrate. As for the experimental part:
Test 2: Inhibition of Human BACE-2
as §1, with “BACE-2” for “BACE-1”

Counter-ions that a name gives are not always drawn.

human BACE-1, sequence (P56817 46-457): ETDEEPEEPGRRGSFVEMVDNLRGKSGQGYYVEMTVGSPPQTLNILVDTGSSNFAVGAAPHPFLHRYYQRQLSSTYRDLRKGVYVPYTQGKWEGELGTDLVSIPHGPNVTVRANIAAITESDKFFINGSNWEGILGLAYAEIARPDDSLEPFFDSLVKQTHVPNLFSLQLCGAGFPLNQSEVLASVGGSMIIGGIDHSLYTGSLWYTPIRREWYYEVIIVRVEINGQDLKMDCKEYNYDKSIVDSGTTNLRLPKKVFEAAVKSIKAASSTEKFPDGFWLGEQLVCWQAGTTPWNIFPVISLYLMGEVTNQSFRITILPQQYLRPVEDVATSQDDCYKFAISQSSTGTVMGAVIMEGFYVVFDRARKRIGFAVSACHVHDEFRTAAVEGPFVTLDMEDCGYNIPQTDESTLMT
human BACE-2, sequence (Q9Y5Z0 63-473): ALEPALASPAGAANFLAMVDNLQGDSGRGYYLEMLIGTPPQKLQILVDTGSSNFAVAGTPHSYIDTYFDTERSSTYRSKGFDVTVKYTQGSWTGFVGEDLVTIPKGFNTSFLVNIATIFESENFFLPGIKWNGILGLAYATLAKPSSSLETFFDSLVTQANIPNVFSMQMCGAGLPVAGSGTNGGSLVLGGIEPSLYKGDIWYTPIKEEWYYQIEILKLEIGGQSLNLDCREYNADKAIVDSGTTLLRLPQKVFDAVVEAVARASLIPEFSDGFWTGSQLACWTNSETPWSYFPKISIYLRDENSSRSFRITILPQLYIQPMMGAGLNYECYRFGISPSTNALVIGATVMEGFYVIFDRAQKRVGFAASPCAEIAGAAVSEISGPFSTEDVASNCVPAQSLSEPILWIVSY

A word on the IC50: it is the concentration at which inhibition is half-maximal. For the compound `C[C@@]1(c2cc(Nc3ncnc4cc(Cl)cnc34)ccc2F)CO[C@@](C)(C(F)(F)F)C(N)=N1` [Example 23, [3-((3R,6R)-5-Amino-3,6-dimethyl-6-trifluoromethyl-3,6-dihydro-2H-[1,4]oxazin-3-yl)-4-fluoro-phenyl]-(7-chloro-pyrido[3,2-d]pyrimidin-4-yl)-amine di-hydrochloride], the results for the IC50 (in assay [1]; at human BACE-1; on human BACE-2) were 51 nM, 40 nM and 11 nM, respectively.

Turning to `C[C@@]1(c2cc(Nc3ncnc4cc(C(F)(F)F)cnc34)ccc2F)CO[C@@](C)(C(F)(F)F)C(N)=N1` [Example 24, [3-((3R,6R)-5-Amino-3,6-dimethyl-6-trifluoromethyl-3,6-dihydro-2H-[1,4]oxazin-3-yl)-4-fluoro-phenyl]-(7-trifluoromethyl-pyrido[3,2-d]pyrimidin-4-yl)-amine], the IC50 amounted to 46 nM in assay [1], 83 nM on human BACE-1 and 280 nM on human BACE-2.

Turning to `COc1cccnc1Nc1ccc(F)c([C@]2(C)CO[C@@](C)(C(F)(F)F)C(N)=N2)c1` [Example 25, (2R,5R)-5-[2-Fluoro-5-(3-methoxy-pyridin-2-ylamino)-phenyl]-2,5-dimethyl-2-trifluoromethyl-5,6-dihydro-2H-[1,4]oxazin-3-ylamine], the results for the IC50 (in assay [1]; at human BACE-1; at human BACE-2) were 220 nM, 210 nM and 27 nM, respectively.

For `COc1cc([N+](=O)[O-])cnc1Nc1ccc(F)c([C@]2(C(F)F)COCC(N)=N2)c1` [Example 26, (R)-5-Difluoromethyl-5-[2-fluoro-5-(3-methoxy-5-nitro-pyridin-2-ylamino)-phenyl]-5,6-dihydro-2H-[1,4]oxazin-3-ylamine], the values for the IC50 (in assay [1]; at human BACE-1; on human BACE-2) were 690 nM, 2900 nM and 1400 nM, respectively.

`COc1cc(N)cnc1Nc1ccc(F)c([C@]2(C(F)F)COCC(N)=N2)c1` [Example 27, N*2*-[3-((R)-5-Amino-3-difluoromethyl-3,6-dihydro-2H-[1,4]oxazin-3-yl)-4-fluoro-phenyl]-3-methoxy-pyridine-2,5-diamine]: the IC50 in assay [1] is 2000 nM; on human BACE-1 it was 3000 nM; on human BACE-2, 660 nM.

Turning to `C[C@@]1(c2nc(Nc3ncnc4cc(C(F)(F)F)cnc34)ccc2F)CO[C@@](C)(C(F)(F)F)C(N)=N1` [Example 28, [6-((3R,6R)-5-Amino-3,6-dimethyl-6-trifluoromethyl-3,6-dihydro-2H-[1,4]oxazin-3-yl)-5-fluoro-pyridin-2-yl]-(7-trifluoromethyl-pyrido[3,2-d]pyrimidin-4-yl)-amine], the IC50 is 150 nM in assay [1], 68 nM on human BACE-1 and 200 nM on human BACE-2.

For `C[C@@]1(c2nc(Nc3ncccc3C#N)ccc2F)CO[C@@](C)(C(F)(F)F)C(N)=N1` [Example 30, 2-[6-((3R,6R)-5-Amino-3,6-dimethyl-6-trifluoromethyl-3,6-dihydro-2H-[1,4]oxazin-3-yl)-5-fluoro-pyridin-2-ylamino]-nicotinonitrile], the IC50 in assay [1] came to 150 nM; on human BACE-1, 1500 nM; on human BACE-2, 1600 nM.

On to `COc1cccnc1Nc1ccc(F)c([C@]2(C)CO[C@@](C)(C(F)(F)F)C(N)=N2)n1` [Example 31, (2R,5R)-5-[3-Fluoro-6-(3-methoxy-pyridin-2-ylamino)-pyridin-2-yl]-2,5-dimethyl-2-trifluoromethyl-5,6-dihydro-2H-[1,4]oxazin-3-ylamine], for which the IC50 is 1000 nM in assay [1], 6400 nM on human BACE-1 and 1700 nM at human BACE-2.

With `Cn1nc(Nc2cccc([C@]3(C)COCC(N)=N3)c2)c2ccccc21` [Example 32, [3-((R)-5-Amino-3-methyl-3,6-dihydro-2H-[1,4]oxazin-3-yl)-phenyl]-(1-methyl-1H-indazol-3-yl)-amine], the IC50 in assay [1] was 8300 nM; on human BACE-1, greater than 10000 nM; at human BACE-2, greater than 10000 nM.

Regarding `COc1cnc(N)nc1Nc1ccc(F)c([C@]2(C(F)F)COCC(N)=N2)c1` [N*4*-[3-((R)-5-amino-3-difluoromethyl-3,6-dihydro-2H-[1,4]oxazin-3-yl)-4-fluoro-phenyl]-5-methoxy-pyrimidine-2,4-diamine], the 50% inhibitory concentration (IC50) (in assay [1]; on human BACE-1; at human BACE-2) was greater than 10000 nM each time.

On to `C[C@@]1(c2cccc(Nc3n[nH]c4ccccc34)c2)COCC(N)=N1` [[3-((R)-5-amino-3-methyl-3,6-dihydro-2H-[1,4]oxazin-3-yl)-phenyl]-(1H-indazol-3-yl)-amine], for which the IC50 (in assay [1]; at human BACE-1; on human BACE-2) was greater than 10000 nM in each case.

These data come from patent publication US9284284B2, “Oxazine derivatives and their use in the treatment of disease” (NOVARTIS AG, priority 2011, dated 2016).
